One assay concerns PC-3. Nature of the assay: Antiproliferative activity against human PC-3 cells harboring PTEN deletion assessed as cell growth inhibition incubated for 96 hrs by SRB assay. The assay is classed as functional.
A further assay deals with MDA-MB-468. Nature of the assay: Antiproliferative activity against human MDA-MB-468 cells harboring PTEN deletion assessed as cell growth inhibition incubated for 96 hrs by SRB assay. It is filed as functional. Background: The SRB assay estimates cell density from bound dye.
Assay [1] concerns U-87 MG. Description: Antiproliferative activity against human U-87MG cells harboring PTEN deletion assessed as cell growth inhibition incubated for 96 hrs by SRB assay. It is filed as functional, U-87MG ATCC.
Assay [2] relates to HCT-116. Nature of the assay: Antiproliferative activity against human HCT-116 cells harboring PI3KCA mutant assessed as cell growth inhibition incubated for 96 hrs by SRB assay. The assay is classed as functional.
Another assay concerns Detroit 562. Nature of the assay: Antiproliferative activity against human Detroit 562 cells harboring PI3KCA mutant assessed as cell growth inhibition incubated for 96 hrs by SRB assay. It is filed as functional.
A further assay deals with IGROV-1. Nature of the assay: Antiproliferative activity against human IGROV-1 cells harboring PI3KCA/PTEN mutant assessed as cell growth inhibition incubated for 96 hrs by SRB assay. It is filed as functional.
Another assay relates to A2780. Nature of the assay: Antiproliferative activity against human A2780 cells harboring PI3KCA/PTEN mutant assessed as cell growth inhibition incubated for 96 hrs by SRB assay. The assay is classed as functional.
The next assay deals with MDA-MB-435. Description: Antiproliferative activity against human MDA-MB-435 cells harboring AKT assessed as cell growth inhibition incubated for 96 hrs by SRB assay. The assay is classed as functional.
A further assay deals with A549. Nature of the assay: Antiproliferative activity against human A549 cells harboring AKT assessed as cell growth inhibition incubated for 96 hrs by SRB assay. It is filed as functional.
In assay [3] the test system is HCT-116. Nature of the assay: Inhibition of recombinant PI3K in human HCT-116 cells assessed as increase in cleavage of PARP at 10 times of GI50 concentration incubated for 24 hrs by immunoblot analysis. It is filed as cell-based. In general terms: A western blot detects proteins with antibodies after separation by electrophoresis.
In assay [4] the test system is HCT-116. Description: Inhibition of recombinant PI3K in human HCT-116 cells assessed as increase in cleavage of PARP at 5 times of GI50 concentration incubated for 24 hrs by immunoblot analysis. The assay is classed as cell-based.
For assay [5], the system named is U-87 MG. The settings on record: Homo sapiens, time 24.0 hrs.
Assay [6] has as its system U-87 MG. The settings on record: Homo sapiens, time 24.0 hrs. This is another data set of the same source.

The source made the active and inactive calls. The rule behind the calls is not given here.

As for `O=c1cc(N2CCOCC2)oc2c(-c3ccccc3)cccc12` [LY-294002], the GI50 – broadly, the concentration that inhibits growth by half – with PC-3 amounted to 4.6 µM; with MDA-MB-468 it was 6.5 µM; with U-87 MG [1], 9.8 µM; in the assay with HCT-116 [2], 10.5 µM; in the assay with Detroit 562, 12.1 µM; in the assay with IGROV-1 it was 5.5 µM. Further, the 50% growth inhibitory concentration (GI50) in the assay on A2780 amounted to 5.58 µM; in the assay on MDA-MB-435 it was 15.3 µM; in the assay with A549, 9 µM. Besides, the inhibition result with HCT-116 [3], in the assay on HCT-116 [4], in the assay with U-87 MG [5] and with U-87 MG [6] was “Active” throughout.

(Values after ChEMBL document CHEMBL5661974, “Pharmacologic characterization of a potent inhibitor of class I phosphatidylinositide 3-kinases” (Cancer Res, 2007).)
